According to patent US20030217378A1, “Cloning using rapidly matured oocytes” (The University of Georgia Research Foundation, Inc, priority 2002, published 2003):
Several values for one entry are separate records, joined by “and”; a condition that tells them apart may be missing. Equal entries are not always repeated.

Tests used:
Format in all cases: cell-based
[1] = tested on: porcine oocytes; assay: Experiment 1: meiotic resumption of porcine oocytes cultured in maturation medium with 1 mM dbcAMP
Procedure: (§1) Ovaries were collected from prepubertal gilts at a local slaughterhouse and transported to the laboratory at 30-35° C. Antral follicles (2-5 mm in diameter) were aspirated with an 18-gauge needle using vacuum suction (40 mm Hg). […] Oocytes were cultured in 4-well plates (Nunc, Roskilde, Denmark) containing 500 μl of each medium. TCM-199 (Gibco) supplemented with 3.05 mM D-glucose, 0.91 mM Na-pyruvate, 0.57 mM cysteine, 10 ng/ml epidermal growth factor (Sigma), 10 IU/ml eCG (Sioux Biochemicals, Sioux Center, Iowa), 10 IU/ml hCG (Intervet, Millsboro, Del.), and 10% (v:v) porcine follicular fluid was used as a basic maturation medium.
After culture for each period, degenerated oocytes with lysed cytoplasmic membranes were removed.

[2] = tested on: porcine oocytes; assay: Experiment 2: maturation to metaphase II of porcine oocytes treated with dbcAMP for 20 h, then cultured without dbcAMP; details: 1 mM dbcAMP for 20 h
Procedure: as §1
Oocytes continued to be cultured for additional 4, 10, 16, and 22 h and examined for meiotic progression to the M II stage by staining with 5 μg/ml Hoechst 33342.

[3] = tested on: porcine embryos reconstituted with 42-h-matured oocytes; assay: Experiment 5: in vitro development of porcine nuclear transfer embryos reconstituted with 42-h-matured oocytes treated with dbcAMP
Procedure: as §1
At the end of maturation, cumulus cells were removed by vortexing with 0.1% (w:v) hyaluronidase (Sigma) and denuded oocytes were transferred into 100 μl of Hepes-buffered TCM-199 with the osmolarity adjusted to 300 mOsm by adding sorbitol supplemented with 7.5 μg/ml cytochalasin B (Sigma) and 10% FCS (manipulation medium). The first polar body and MII plate were removed by aspiration with a 15-μm inner diameter glass pipette. The oocytes had been previously stained in the manipulation medium supplemented with 5 μg/ml Hoechst 33342 (Sigma) for 20 min and confirmation of successful enucleation was achieved by visualizing the cytoplast and removed cytoplasm under ultraviolet light. After enucleation, a donor cell was inserted into the perivitelline space of each enucleated oocyte using the same glass pipette. Cell-oocyte complexes were washed in TCM-199 supplemented with 10% FCS, transferred to the same medium and kept in a CO2 incubator adjusted to 5% CO2 in air at 38.5° C. until fusion.
The chamber for fusion was a 100 mm dish filled with 15 ml of Zimmerman fusion medium, Zimmerman, et al., Electric field-induced cell-to-cell fusion. J Membr Biol 1982, 67: 165-182. Two stainless steel wires (100 μm diameter) were used as electrodes and they were attached to micromanipulators. The single cell-oocyte complex was sandwiched between the electrodes and oriented with the contact surface between the cytoplast and the donor cell perpendicular to the electrodes. The distance between the electrodes was about 100 μm. Membrane fusion was induced by applying a single direct current pulse of 250 V/mm for a duration of 20 μsec with a prepulse of alternating current field of 5 V, 1 MHz for 2 sec using an LF 101 Fusion Machine (TR Tech Co., Tokyo, Japan). Following the fusion pulse, the complexes were washed in G1.2 medium, Gandhi, et al., Substrate utilization in porcine embryos cultured in NCSU23 and G1.2/G2.2 sequential culture media, Mol Reprod Dev 2001, 58: 269-275 and cultured for a period of 1 h in 100 μl of the same medium. Fusion was then determined by microscopic examination.
At 3 h after fusion, fused embryos were washed once in Zimmerman fusion medium and then placed between 2 wire electrodes (1 mm apart) of the fusion chamber slide with 15 ml of the medium. Direct current pulses of 75 V/mm were applied twice to the embryos for a duration of 60 μsec at intervals of 5 sec. Activated embryos were incubated in 100 μl of G1.2 medium supplemented with 7.5 μg/ml cytochalasin B for 2 h after activation to prevent extrusion of polar bodies, Miyoshi, et al. (2000) (supra), and then transferred into G1.2 medium. After culture in G 1.2 medium for 3 days, the embryos were transferred into 100 μl of G2.2 medium, Gandhi, et al., (2001) (supra), and continued to be cultured. The embryos were examined for cleavage and blastocyst formation at 2 and 7 days of culture, respectively. At the end of the culture period, all blastocysts were counted for nuclei after Hoechst staining. The blastocysts were placed on slides with a drop of mounting medium consisting of glycerol and PBS (9: 1) containing 0.1 mg/ml Hoechst 33342. A cover slip was placed on the top of the blastocysts and the edge was sealed with fingernail polish. The numbers of nuclei were counted under ultraviolet light. […]

[4] = then 4 h additional culture without dbcAMP
[5] = then 10 h additional culture without dbcAMP
[6] = then 16 h additional culture without dbcAMP
[7] = then 22 h additional culture without dbcAMP
[8] = oocytes treated with 1 mM dbcAMP for 20 h, 42-h-matured, examined at 2 days of culture
[9] = oocytes treated with 1 mM dbcAMP for 20 h, 42-h-matured, examined at 7 days of culture
[10] = oocytes treated with 1 mM dbcAMP for 20 h, M II oocytes collected at 42 h of maturation

## CCCC(=O)Nc1ncnc2c1ncn2[C@@H]1O[C@@H]2COP(=O)(O)O[C@H]2[C@H]1OC(=O)CCC [dbcAMP, dibutyryl cyclic AMP]
[1]; 16 h of culture
  No. of oocytes at the germinal vesicle stage: 49
  oocytes at the germinal vesicle stage (%), percentage (mean ± SEM) of oocytes examined: 77.8% and 77.8 ± 3.2%
[1]; 20 h of culture
  No. of oocytes at the germinal vesicle stage: 43
  oocytes at the germinal vesicle stage (%), percentage (mean ± SEM) of oocytes examined: 72.9% and 72.9 ± 10.4%
[1]; 24 h of culture
  No. of oocytes at the germinal vesicle stage: 33
  oocytes at the germinal vesicle stage (%), percentage (mean ± SEM) of oocytes examined: 54.1 ± 7.0%
[1]; 42 h of culture
  No. of oocytes at the germinal vesicle stage: 27
  oocytes at the germinal vesicle stage (%), percentage (mean ± SEM) of oocytes examined: 44.3% and 44.3 ± 2.6%
[1]; at each culture period (16, 20, 24, 42 h), P<0.05
  effect of addition of dbcAMP on the percentage of GV oocytes versus absence: increased
[2]; at 10 h of additional culture, P<0.05
  effect of addition of dbcAMP on the percentage of M II oocytes versus absence: decreased
[2]; [4]
  No. of oocytes at the metaphase II stage: 30
  oocytes at the metaphase II stage (%), percentage (mean ± SEM) of oocytes examined: 35.3% and 35.3 ± 9.2%
[2]; [5]
  No. of oocytes at the metaphase II stage: 25
  oocytes at the metaphase II stage (%), percentage (mean ± SEM) of oocytes examined: 29.8% and 29.8 ± 1.4%
[2]; [6]
  No. of oocytes at the metaphase II stage: 54
  oocytes at the metaphase II stage (%), percentage (mean ± SEM) of oocytes examined: 67.5% and 67.5 ± 8.4%
[2]; [7]
  No. of oocytes at the metaphase II stage: 69
  oocytes at the metaphase II stage (%), percentage (mean ± SEM) of oocytes examined: 85.2 ± 5.0%
[3]; 42-h-matured oocytes
  difference in mean numbers of cells in the blastocysts between presence and absence of dbcAMP treatment: no significant difference
  difference in percentages of fused cell-oocyte complexes, cleaved embryos and embryos developed to blastocysts between presence and absence of dbcAMP treatment: no significant differences
[3]; oocytes treated with 1 mM dbcAMP for 20 h, 42-h-matured, blastocysts at end of culture
  Mean no. ± SEM of cells in blastocysts: 49.0 ± 7.0
[3]; [8]
  No. of embryos developed to ≧2-cell: 48
  embryos developed to ≧2-cell (%), percentage (mean ± SEM) of complexes fused: 41.4 ± 8.3%
[3]; [9]
  No. of embryos developed to Blastocyst: 2
  embryos developed to Blastocyst (%), percentage (mean ± SEM) of complexes fused: 1.7 ± 1.5%
[3]; [10]
  No. of complexes fused: 116
  complexes fused (%), percentage (mean ± SEM) of complexes treated: 80.0 ± 4.5%
